Laboratory results reported in patent publication US20060041017A1, “Synergistic conjugated linoleic acid (CLA) and carnitine combination” (priority 2004, published 2006).

Legend:
Type in all cases: in vivo
[1] = tested on: Carnitine palmitoytransferase (CPT); assay: CPT activity in heart mitochondria (spectrophotometric assay); conditions: Wistar rats, oral gavage daily 2 weeks; 91 mg CLA, 68,25 mg L-carnitine fumarate; means ± s.e.m.
Experimental: (§1) Methods: Four groups of 3-months old Wistar rats were given the following treatments by oral gavage daily for 2 weeks: (1) C (control)−1 ml corn oil, (2) CLA−91 mg CLA (in corn oil), (3) CAR−68,25 mg L-carnitine fumarate (in corn oil), (4) CLA+CAR−91 mg CLA with 68,25 mg L-carnitine fumarate (in corn oil). Body weight and body fat weight (corpus adiposum nuchae, corpus adiposum, perirenal tissue, omentum majus) were measured. CoQ 10 and CoQ9 in isolated mitochondria were estimated by HPLC method. For evaluation of parameters of oxidative phosphorylation were used Gilson oxygraph records of respiratory chain by using Clark oxygen electrode (S3— ADP stimulated respiration, S4— basal respiration, OPR—rate of ATP production). A spectrophotometric assay was used for CPT activity.

heart mitochondrial CoQ = assay: Heart mitochondrial CoQ levels (HPLC) after 2 weeks of supplementation; conditions: Wistar rats; for Heart mitochondrial CoQ content (CoQ10-OX+CoQ9-OX) in comparison with control group: 2 weeks, result in words; for HEART mitochondria CoQ9-OX / HEART mitochondria CoQ10 + CoQ9 / HEART mitochondria CoQ10-OX: oral gavage daily 2 weeks, 91 mg CLA, 68,25 mg L-carnitine fumarate, means ± s.e.m.
Experimental: as §1

[2] = tested on: carnitine palmitoyl transferase (CPT 1); assay: CPT I activity in brown adipose tissue after two weeks of daily oral gavage; conditions: adult rats, oral gavage daily for two weeks; for CPT I activity in brown adipose tissue (low dose) % Control: control = corn oil; for CPT I activity in brown adipose tissue (standard dose) % Control: control = water; for CPT I activity in brown adipose tissue (low dose) Mean ± SEM: L-Carnitine 68.25 mg, CLA 91 mg, Carnitine+CLA 68.25 mg+91 mg; for CPT I activity in brown adipose tissue (standard dose) Mean ± SEM: L-Carnitine 273 mg, CLA 354 mg, Carnitine+CLA 273 mg+364 mg
Text: Brown adipose tissue is an important site for long-term storage of fat in the body and for the rapid metabolism of fat for thermogenesis. CPT I is a key enzyme in this process and it has an essential role In the metabolism of fats by transporting long chain fatty acids into the Inner mitochondria for oxidation. The first experiment involved the following groups of adult rats. The treatment involved administration of the following products daily by oral gavage for two weeks, the control group receiving water. Carnitine was administered as the fumarate salt. • 1. Control (water)−(1 mL) • 2. L-Carnitine−273 mg (in 1 mL water) • 3. CLA−354 mg (In 1 mL corn oil) • 4. Carnitine+CLA−273 mg+364 mg (in 1 mL corn oil) At the end of two weeks, the animals were euthanized and brown adipose tissue was excised for CPT I assay according to Rahman et al(2001). […] Corn Oil−(1 mL) • 2. L-Carnitine−68.25 mg (in 1 mL water) • 3. CLA−91 mg (in 1 mL corn oil) • 4. Carnitine+CLA−68.25 mg+91 mg (in 1 mL corn oil)

[3] = tested on: Carnitine palmitoytransferase (CPT); assay: CPT activity in kidney mitochondria (spectrophotometric assay); conditions: Wistar rats, oral gavage daily 2 weeks; 91 mg CLA, 68,25 mg L-carnitine fumarate
Experimental: as §1

kidney mitochondrial CoQ = assay: Kidney mitochondrial CoQ levels (HPLC) after 2 weeks of supplementation; conditions: Wistar rats; for Kidney mitochondrial CoQ content (CoQ10-OX+CoQ9-OX) in comparison with control group: 2 weeks, result in words; for KIDNEY mitochondria CoQ9-OX / KIDNEY mitochondria CoQ10 + CoQ9 / KIDNEY mitochondria CoQ10-OX: oral gavage daily 2 weeks, 91 mg CLA, 68,25 mg L-carnitine fumarate
Experimental: as §1

| Compound | HEART mitochondria CPT [1] [nmol/mg rot./min] | Heart mitochondrial CoQ content (CoQ10-OX+CoQ9-OX) in comparison with control group (heart mitochondrial CoQ) | HEART mitochondria CoQ9-OX (heart mitochondrial CoQ) [nmol/mg prot.] | HEART mitochondria CoQ10 + CoQ9 (heart mitochondrial CoQ) [nmol/mg prot.] | HEART mitochondria CoQ10-OX (heart mitochondrial CoQ) [nmol/mg prot.] | CPT I activity in brown adipose tissue (low dose) % Control [2] [% Control] | CPT I activity in brown adipose tissue (standard dose) % Control [2] [% Control] | CPT I activity in brown adipose tissue (low dose) Mean ± SEM [2] [nmoles/mg protein/min] | CPT I activity in brown adipose tissue (standard dose) Mean ± SEM [2] | KIDNEY mitochondria CPT [3] [nmol/mg rot./min] | Kidney mitochondrial CoQ content (CoQ10-OX+CoQ9-OX) in comparison with control group (kidney mitochondrial CoQ) | KIDNEY mitochondria CoQ9-OX (kidney mitochondrial CoQ) [nmol/mg prot.] | KIDNEY mitochondria CoQ10 + CoQ9 (kidney mitochondrial CoQ) [nmol/mg prot.] | KIDNEY mitochondria CoQ10-OX (kidney mitochondrial CoQ) [nmol/mg prot.] |
| --- | --- | --- | --- | --- | --- | --- | --- | --- | --- | --- | --- | --- | --- | --- |
| octadecadienoic acid [CLA] | 15.52 ± 1.080 | significantly stimulated | 3.379 ± 0.261 | 3.722 ± 0.298 | 0.343 ± 0.041 | 121.53 | 129.82 | 27.840 ± 1.259 | 29.530 + 1.590 nmoles/mg protein/min | 6.517 ± 0.351 | significantly stimulated | 1.162 ± 0.102 | 1.284 ± 0.105 | 0.122 ± 0.005 |
| C[N+](C)(C)CC(O)CC(=O)[O-] (stereo not shown) [Carnitine, 3-hydroxy-4-N,N, N-trlmethylaminobutyrate] | 12.36 ± 1.759 | significantly stimulated | 4.692 ± 0.168 | 5.147 ± 0.181 | 0.452 ± 0.021 | 125 | 117.85 | 27.024 ± 2.074 | 26.808 ± 2.373 nmoles/mg protein/min | 2.974 ± 0.466 | significantly stimulated | 1.290 ± 0.119 | 1.471 ± 0.128 | 0.138 ± 0.012 |
